Test system: bacterial mutagenicity (Ames)
Test: in vitro bacterial mutagenicity (Ames) assay
Format: cell-based

## CC(C)NC(=O)COc1cccc(-c2nc(Nc3ccc4[nH]ncc4c3)c3ccccc3n2)c1 [belumosudil, 2-{3-[4-(1H-indazol-5-ylamino)-2-quinazolinyl]phenoxy}-N-(propan-2-yl) acetamide]
  genotoxicity, bacterial mutagenicity (Ames) assay: not genotoxic

Source: patent US12097202B2 (Kadmon Corporation, LLC, priority 2022, dated 2024)
